# Test results: BindingDB's records for doi:10.3109/14756366.2011.621122 (Ondokuz Mayis University, 2012)
# What was measured:
# Assay in all cases: CA Activity Assay
# Conditions in all cases: pH 7.4
# [1] = target: Carbonic anhydrase 1 (Homo sapiens, UniProt P00915)
# [2] = target: Carbonic anhydrase 2 (Homo sapiens, UniProt P00918)
# [3] = target: T1, Carbonic anhydrase 3 (Bos taurus, UniProt Q3SZX4)
# T1 sequence (Q3SZX4 whole entry): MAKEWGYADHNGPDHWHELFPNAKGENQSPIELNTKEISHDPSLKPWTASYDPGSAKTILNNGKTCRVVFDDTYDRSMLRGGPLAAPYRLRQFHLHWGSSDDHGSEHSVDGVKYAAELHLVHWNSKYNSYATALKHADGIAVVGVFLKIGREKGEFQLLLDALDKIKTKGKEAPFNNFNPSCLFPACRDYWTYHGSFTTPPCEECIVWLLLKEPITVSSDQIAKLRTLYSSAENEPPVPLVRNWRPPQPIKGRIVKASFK
# [4] = target: Carbonic anhydrase 6 (Homo sapiens, UniProt P23280)
# Chain of Carbonic anhydrase 6 (P23280 whole entry): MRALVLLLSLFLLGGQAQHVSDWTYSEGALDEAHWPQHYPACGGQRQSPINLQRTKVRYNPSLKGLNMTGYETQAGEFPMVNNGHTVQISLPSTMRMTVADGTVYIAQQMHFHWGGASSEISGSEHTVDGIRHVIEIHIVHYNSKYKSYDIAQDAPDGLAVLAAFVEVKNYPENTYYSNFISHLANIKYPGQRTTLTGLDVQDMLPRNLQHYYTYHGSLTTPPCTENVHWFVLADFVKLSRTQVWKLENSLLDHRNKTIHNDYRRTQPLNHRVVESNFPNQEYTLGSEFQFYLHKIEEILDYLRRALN
# Chain of Carbonic anhydrase 1 (P00915 whole entry): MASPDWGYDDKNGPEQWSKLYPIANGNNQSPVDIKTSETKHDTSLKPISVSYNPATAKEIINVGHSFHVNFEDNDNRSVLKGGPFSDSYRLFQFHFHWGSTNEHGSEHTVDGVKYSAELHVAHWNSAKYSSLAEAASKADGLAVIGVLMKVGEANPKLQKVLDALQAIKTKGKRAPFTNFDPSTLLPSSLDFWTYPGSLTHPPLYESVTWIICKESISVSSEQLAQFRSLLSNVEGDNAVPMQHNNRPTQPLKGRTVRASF
Structure (SMILES),Ki [1] [µM],Ki [2] [µM],Ki [3] [µM],Ki [4] [µM],IC50 [3] [µM]
"Cc1ccc(S(=O)(=O)Nc2ccccc2)cc1 [CA inhibitor, 2]",210,14.3,13.1,13.5,–
"O[C@@H]1CCCC[C@H]1O [(1R,2R)-trans-1,2-cyclohexanediol]",–,–,4.28,–,–
"Cc1ccc(S(=O)(=O)N2[C@@H]3C=CCC[C@@H]3OC2(C)C)cc1 [Carbonic anhydrase inhibitors (CAIs), 4]",379,21.7,57.4,275,–
Nc1ccc(S(=O)(=O)Nc2ccccn2)cc1 [MLS000069725],26.2,0.348,93.2,11.7,–
Oc1ccccc1,–,–,–,–,4.63
"Oc1ccccc1O [1,2-Dihydroxybenzene, XI]",–,–,–,–,5.79
"Cc1ccc(S(=O)(=O)N[C@@H]2C=CCC[C@@H]2O)cc1 [Carbonic anhydrase inhibitors (CAIs), 3]",70.2,3.72,2.67,4.48,–
c1ccc(-c2cc(OCCCN3CCCC3)nc(-c3ccccc3)n2)cc1,–,–,–,–,66.7

# More lines, in order of falling Ki [3], values ahead:
Ki [1] [µM],Ki [2] [µM],Ki [3] [µM],Ki [4] [µM],Structure (SMILES),IC50 [3] [µM]
50.1,1.03,2.43,24.3,"Cc1ccc(NS(=O)(=O)c2ccc(C)cc2)cc1 [Carbonic anhydrase inhibitors (CAIs), 1]",–
9.34,0.82,1.75,3.78,"Cc1ccc(S(=O)(=O)N[C@@H]2[C@@H](O)[C@H](O)CC[C@@H]2O)cc1 [Carbonic anhydrase inhibitors (CAIs), 6]",–
21.7,1.84,1.19,16.7,"O[C@@H]1CCCC[C@@H]1O [Carbonic anhydrase inhibitors (CAIs), 7]",–
5.48,0.47,0.59,1.12,"Cc1ccc(S(=O)(=O)N[C@@H]2[C@@H](O)[C@@H](O)CC[C@@H]2O)cc1 [Carbonic anhydrase inhibitors (CAIs), 5]",–
